From PubChem BioAssay (NCI)
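These data come from cells grown in 96-well plates and exposed to compound for 48 hours at five concentrations. TGI denotes the concentration required for complete inhibition of growth.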

What was measured:
Assay in all cases: NCI-60 cell line screen, 48 h
CAKI-1 renal = tested on: CAKI-1 renal
COLO 205 colon = tested on: COLO 205 colon
DU-145 prostate = tested on: DU-145 prostate
HOP-92 NSCLC = tested on: HOP-92 NSCLC
HT29 colon = tested on: HT29 colon
LOX IMVI melanoma = tested on: LOX IMVI melanoma
M14 melanoma = tested on: M14 melanoma
MCF7 breast = tested on: MCF7 breast
MDA-MB-435 = tested on: MDA-MB-435
NCI-H460 lung = tested on: NCI-H460 lung
NCI/ADR-RES ovarian = tested on: NCI/ADR-RES ovarian
OVCAR-4 ovarian = tested on: OVCAR-4 ovarian
OVCAR-5 ovarian = tested on: OVCAR-5 ovarian
OVCAR-8 ovarian = tested on: OVCAR-8 ovarian
RXF 393 renal = tested on: RXF 393 renal
SN12C renal = tested on: SN12C renal
SNB-19 CNS = tested on: SNB-19 CNS
U251 CNS = tested on: U251 CNS
UO-31 renal = tested on: UO-31 renal
SK-MEL-5 melanoma = tested on: SK-MEL-5 melanoma

Measured: TGI

CCCCSC1=N/C(=C\c2ccccc2O)C(Cl)=N1
> 100 µM: CAKI-1 renal | COLO 205 colon | DU-145 prostate | HOP-92 NSCLC | HT29 colon | LOX IMVI melanoma | M14 melanoma | MCF7 breast | MDA-MB-435 | NCI-H460 lung | NCI/ADR-RES ovarian | OVCAR-4 ovarian | OVCAR-5 ovarian | OVCAR-8 ovarian | RXF 393 renal | SN12C renal | SNB-19 CNS | U251 CNS | UO-31 renal

CCOC(=O)C(NC(=O)c1cccc(Cl)c1)(N1CCN(c2cc3c(cc2F)c(=O)c(C(=O)O)cn3CC)CC1)C(F)(F)F (stereo unspecified)
27.2 µM: SK-MEL-5 melanoma
> 100 µM: NCI/ADR-RES ovarian | SNB-19 CNS
48.7 µM: LOX IMVI melanoma
32 µM: COLO 205 colon
37.2 µM: MCF7 breast
88.3 µM: DU-145 prostate
81.2 µM: NCI-H460 lung
31.9 µM: M14 melanoma
39.4 µM: RXF 393 renal
46.6 µM: UO-31 renal
33.4 µM: HOP-92 NSCLC
70.9 µM: SN12C renal
20.9 µM: U251 CNS
60.9 µM: CAKI-1 renal
28 µM: MDA-MB-435
33 µM: OVCAR-5 ovarian
42.5 µM: HT29 colon
53 µM: OVCAR-4 ovarian
46.7 µM: OVCAR-8 ovarian

O=C(NCc1ccc(Cl)c(Cl)c1)c1nc2ccccc2nc1NCc1ccc(Cl)c(Cl)c1
> 100 µM: CAKI-1 renal | COLO 205 colon | DU-145 prostate | HOP-92 NSCLC | HT29 colon | LOX IMVI melanoma | M14 melanoma | MCF7 breast | MDA-MB-435 | NCI-H460 lung | NCI/ADR-RES ovarian | OVCAR-5 ovarian | OVCAR-8 ovarian | RXF 393 renal | SK-MEL-5 melanoma | SN12C renal | SNB-19 CNS | U251 CNS | UO-31 renal

FC(F)(Sc1nc2ccccc2[nH]1)c1nc2ccccc2o1
> 100 µM: CAKI-1 renal | COLO 205 colon | DU-145 prostate | HOP-92 NSCLC | HT29 colon | M14 melanoma | MCF7 breast | MDA-MB-435 | NCI-H460 lung | NCI/ADR-RES ovarian | OVCAR-4 ovarian | OVCAR-5 ovarian | OVCAR-8 ovarian | RXF 393 renal | SK-MEL-5 melanoma | SN12C renal | U251 CNS | UO-31 renal

COc1ccc2c(C=O)c3n(c(=O)c2c1OC)CCc1cc2c(cc1-3)OCO2
88.5 µM: HOP-92 NSCLC
11.3 µM: RXF 393 renal
82 µM: COLO 205 colon
> 100 µM: CAKI-1 renal | DU-145 prostate | HT29 colon | M14 melanoma | MCF7 breast | MDA-MB-435 | NCI-H460 lung | NCI/ADR-RES ovarian | OVCAR-4 ovarian | OVCAR-5 ovarian | OVCAR-8 ovarian | SK-MEL-5 melanoma | SN12C renal | SNB-19 CNS | U251 CNS | UO-31 renal

C/C(=C\CNc1ncnc2c1ncn2CCC#N)CO
> 100 µM: CAKI-1 renal | COLO 205 colon | DU-145 prostate | HOP-92 NSCLC | HT29 colon | LOX IMVI melanoma | M14 melanoma | MCF7 breast | MDA-MB-435 | NCI-H460 lung | NCI/ADR-RES ovarian | OVCAR-4 ovarian | OVCAR-5 ovarian | OVCAR-8 ovarian | RXF 393 renal | SK-MEL-5 melanoma | SN12C renal | SNB-19 CNS | UO-31 renal

Cc1cc(NS(=O)(=O)c2ccc(NC(NC(=O)OC(C)C)(C(F)(F)F)C(F)(F)F)cc2)nc(C)n1
> 100 µM: CAKI-1 renal | COLO 205 colon | DU-145 prostate | HOP-92 NSCLC | HT29 colon | LOX IMVI melanoma | M14 melanoma | MCF7 breast | MDA-MB-435 | NCI-H460 lung | NCI/ADR-RES ovarian | OVCAR-4 ovarian | OVCAR-5 ovarian | OVCAR-8 ovarian | RXF 393 renal | SK-MEL-5 melanoma | SN12C renal | SNB-19 CNS | U251 CNS

CC(C)[C@H](NC(=O)OCc1ccccc1)C(=O)N[C@H](/C=C/C(=O)OC(C)(C)C)CO
> 100 µM: CAKI-1 renal | COLO 205 colon | DU-145 prostate | HOP-92 NSCLC | HT29 colon | LOX IMVI melanoma | M14 melanoma | MCF7 breast | MDA-MB-435 | NCI-H460 lung | NCI/ADR-RES ovarian | OVCAR-4 ovarian | OVCAR-5 ovarian | OVCAR-8 ovarian | RXF 393 renal | SK-MEL-5 melanoma | SN12C renal | SNB-19 CNS

C(/Cc1ccc2c(c1)OCO2)=N\NC1=NCCCCN1
58.2 µM: SK-MEL-5 melanoma
> 100 µM: COLO 205 colon | DU-145 prostate | HOP-92 NSCLC | HT29 colon | LOX IMVI melanoma | MCF7 breast | MDA-MB-435 | NCI-H460 lung | NCI/ADR-RES ovarian | OVCAR-4 ovarian | OVCAR-5 ovarian | OVCAR-8 ovarian | RXF 393 renal | SN12C renal | SNB-19 CNS | U251 CNS | UO-31 renal
35.1 µM: M14 melanoma

CCCSC1=N/C(=C\c2ccco2)C(=O)N1
> 100 µM: CAKI-1 renal | COLO 205 colon | DU-145 prostate | HOP-92 NSCLC | HT29 colon | LOX IMVI melanoma | M14 melanoma | MCF7 breast | MDA-MB-435 | NCI-H460 lung | NCI/ADR-RES ovarian | OVCAR-4 ovarian | OVCAR-5 ovarian | OVCAR-8 ovarian | RXF 393 renal | SN12C renal | SNB-19 CNS | U251 CNS | UO-31 renal

COC(=O)C1CCC(=S)N1C(C)=O (stereo unspecified)
> 100 µM: CAKI-1 renal | COLO 205 colon | DU-145 prostate | HOP-92 NSCLC | HT29 colon | M14 melanoma | MCF7 breast | MDA-MB-435 | NCI-H460 lung | NCI/ADR-RES ovarian | OVCAR-4 ovarian | OVCAR-5 ovarian | OVCAR-8 ovarian | RXF 393 renal | SK-MEL-5 melanoma | SNB-19 CNS | U251 CNS | UO-31 renal

CCN(CC)CCCNc1nnc(C)c2[nH]c3ccccc3c12
43 µM: SN12C renal
27.8 µM: SK-MEL-5 melanoma
38.8 µM: RXF 393 renal
> 100 µM: CAKI-1 renal | MCF7 breast | NCI/ADR-RES ovarian | SNB-19 CNS | U251 CNS | UO-31 renal
61.3 µM: OVCAR-5 ovarian
25.9 µM: MDA-MB-435
56.1 µM: HT29 colon
32.4 µM: M14 melanoma
13.1 µM: COLO 205 colon
42.3 µM: OVCAR-8 ovarian
30.9 µM: LOX IMVI melanoma | NCI-H460 lung
59.9 µM: DU-145 prostate
55 µM: HOP-92 NSCLC
